Source: patent publication US20140371074A1, “METHOD TO INCREASE PLANT YIELD” (priority 2012, published 2014)

How the values were obtained:
[1] = test system: soybean Latham 2767 Roundup Ready; test: Field: seed treatment with 2,4-D solution 1X-10X, Laurel, Iowa (Table 6); format: in vivo; conditions: 1X~0.0002968 lb a.e.
Procedure: Previously untreated soybean seeds were treated with between 1X to 10X of 2,4-D solution, where 1X is equivalent to approximately 0.0002968 pounds acid equivalent of 2,4-D. The seed variety was Latham 2767 Roundup Ready seeds and seeds were planted in Laurel, Iowa with a row width of 30 inches. Plants were sprayed with foliar insecticide and fungicide.

soybean variety L2438R2 = test: Field: seed treatment with 2,4-D mixture 0.01-0.09 ounces per 100 pounds of seed, Laurel, Iowa (Table 7); format: in vivo
Procedure: Previously untreated soybean seeds were treated with between 0.01 ounces to 0.09 ounces of 2,4-D solution per 100 pounds of seed, in which 0.01 ounces is equivalent to 0.0002968 pounds acid equivalent of 2,4-D. The seed variety was L2438R2 and seeds were planted in Laurel, Iowa with a row width of 50 inches. Four rows were planted and the middle two rows were harvested.

[2] = 0.01 ounces per 100 pounds of seed
[3] = 0.02 ounces per 100 pounds of seed
[4] = 0.03 ounces per 100 pounds of seed
[5] = 0.04 ounces per 100 pounds of seed
[6] = 0.05 ounces per 100 pounds of seed
[7] = 0.06 ounces per 100 pounds of seed
[8] = 0.07 ounces per 100 pounds of seed
[9] = 0.08 ounces per 100 pounds of seed
[10] = 0.09 ounces per 100 pounds of seed

O=C(O)COc1ccc(Cl)cc1Cl [2,4-D, 2,4-Dichlorophenoxyacetic acid]
Harvested weight ([1]; 1X seed treatment): 125 g | Yield (Bushels/acre at 13% moisture) ([1]; 1X seed treatment): 60.71 Bushels/acre | Harvested weight ([1]; 2X seed treatment): 90 g | Yield (Bushels/acre at 13% moisture) ([1]; 2X seed treatment): 42.26 Bushels/acre | Harvested weight ([1]; 3X seed treatment): 100 g | Yield (Bushels/acre at 13% moisture) ([1]; 3X seed treatment): 45.23 Bushels/acre | Harvested weight ([1]; 4X seed treatment): 100 g | Yield (Bushels/acre at 13% moisture) ([1]; 4X seed treatment): 44.23 Bushels/acre | Harvested weight ([1]; 5X seed treatment): 105 g | Yield (Bushels/acre at 13% moisture) ([1]; 5X seed treatment): 45.33 Bushels/acre | Harvested weight ([1]; 6X seed treatment): 110 g | Yield (Bushels/acre at 13% moisture) ([1]; 6X seed treatment): 48.22 Bushels/acre | Harvested weight ([1]; 7X seed treatment): 105 g | Yield (Bushels/acre at 13% moisture) ([1]; 7X seed treatment): 44.36 Bushels/acre | Harvested weight ([1]; 8X seed treatment): 110 g | Yield (Bushels/acre at 13% moisture) ([1]; 8X seed treatment): 46.32 Bushels/acre | Harvested weight ([1]; 9X seed treatment): 100 g | Yield (Bushels/acre at 13% moisture) ([1]; 9X seed treatment): 43.06 Bushels/acre | Harvested weight ([1]; 10X seed treatment): 95 g | Yield (Bushels/acre at 13% moisture) ([1]; 10X seed treatment): 42.12 Bushels/acre | Repetition 1 Total weight (soybean variety L2438R2; [2]): 14.80 pounds | Repetition 1 Yield (soybean variety L2438R2; [2]): 46.49 Bu/acre | Repetition 2 Total weight (soybean variety L2438R2; [2]): 15.60 pounds | Repetition 2 Yield (soybean variety L2438R2; [2]): 48.92 Bu/acre | Total yield (total average yield) (soybean variety L2438R2; [2]): 47.70 Bu/acre | Repetition 1 Total weight (soybean variety L2438R2; [3]): 15.90 pounds | Repetition 1 Yield (soybean variety L2438R2; [3]): 50.21 Bu/acre | Repetition 2 Total weight (soybean variety L2438R2; [3]): 16.10 pounds | Repetition 2 Yield (soybean variety L2438R2; [3]): 50.65 Bu/acre | Total yield (total average yield) (soybean variety L2438R2; [3]): 50.43 Bu/acre | Repetition 1 Total weight (soybean variety L2438R2; [4]): 15.60 pounds | Repetition 1 Yield (soybean variety L2438R2; [4]): 49.26 Bu/acre | Repetition 2 Total weight (soybean variety L2438R2; [4]): 14.90 pounds | Repetition 2 Yield (soybean variety L2438R2; [4]): 47.12 Bu/acre | Total yield (total average yield) (soybean variety L2438R2; [4]): 48.19 Bu/acre | Repetition 1 Total weight (soybean variety L2438R2; [5]): 16.40 pounds | Repetition 1 Yield (soybean variety L2438R2; [5]): 49.46 Bu/acre | Repetition 2 Total weight (soybean variety L2438R2; [5]): 15.90 pounds | Repetition 2 Yield (soybean variety L2438R2; [5]): 47.45 Bu/acre | Total yield (total average yield) (soybean variety L2438R2; [5]): 48.45 Bu/acre | Repetition 1 Total weight (soybean variety L2438R2; [6]): 16.10 pounds | Repetition 1 Yield (soybean variety L2438R2; [6]): 47.48 Bu/acre | Repetition 2 Total weight (soybean variety L2438R2; [6]): 16.00 pounds | Repetition 2 Yield (soybean variety L2438R2; [6]): 49.21 Bu/acre | Total yield (total average yield) (soybean variety L2438R2; [6]): 48.35 Bu/acre | Repetition 1 Total weight (soybean variety L2438R2; [7]): 15.50 pounds | Repetition 1 Yield (soybean variety L2438R2; [7]): 46.85 Bu/acre | Repetition 2 Total weight (soybean variety L2438R2; [7]): 14.90 pounds | Repetition 2 Yield (soybean variety L2438R2; [7]): 45.78 Bu/acre | Total yield (total average yield) (soybean variety L2438R2; [7]): 46.31 Bu/acre | Repetition 1 Total weight (soybean variety L2438R2; [8]): 14.50 pounds | Repetition 1 Yield (soybean variety L2438R2; [8]): 44.99 Bu/acre | Repetition 2 Total weight (soybean variety L2438R2; [8]): 14.90 pounds | Repetition 2 Yield (soybean variety L2438R2; [8]): 46.13 Bu/acre | Total yield (total average yield) (soybean variety L2438R2; [8]): 45.56 Bu/acre | Repetition 1 Total weight (soybean variety L2438R2; [9]): 13.40 pounds | Repetition 1 Yield (soybean variety L2438R2; [9]): 41.93 Bu/acre | Repetition 2 Total weight (soybean variety L2438R2; [9]): 14.30 pounds | Repetition 2 Yield (soybean variety L2438R2; [9]): 44.99 Bu/acre | Total yield (total average yield) (soybean variety L2438R2; [9]): 43.46 Bu/acre | Repetition 1 Total weight (soybean variety L2438R2; [10]): 14.90 pounds | Repetition 1 Yield (soybean variety L2438R2; [10]): 46.40 Bu/acre | Repetition 2 Total weight (soybean variety L2438R2; [10]): 14.00 pounds | Repetition 2 Yield (soybean variety L2438R2; [10]): 43.83 Bu/acre | Total yield (total average yield) (soybean variety L2438R2; [10]): 45.12 Bu/acre | Repetition 1 Total weight (soybean variety L2438R2; Average over 0.01-0.09 ounces): 15.23 pounds | Repetition 1 Yield (soybean variety L2438R2; Average over 0.01-0.09 ounces): 47.01 Bu/acre | Repetition 2 Total weight (soybean variety L2438R2; Average over 0.01-0.09 ounces): 15.18 pounds | Repetition 2 Yield (soybean variety L2438R2; Average over 0.01-0.09 ounces): 47.12 Bu/acre | Total yield (total average yield) (soybean variety L2438R2; Average over 0.01-0.09 ounces): 47.06 Bu/acre
